The record followed here is patent US8178506B2, “Oligomeric compounds and compositions for use in modulation of small non-coding RNAs” (Regulus Therapeutics Inc., priority 2003, dated 2012).

Series [1] has as its system mir-30a pri-miRNA. Briefly: mir-30a luciferase reporter (pGL3C-M30-4X) assay in 293T cells. The conditions noted are these: for percent control luciferase expression: 150 nM oligomeric compound, then mir-30a pri-miRNA mimic 200 nM, pGL3C-M30-4X normalized to pRL-CMV. The format is cell-based, human. The text has this:
In one embodiment of the invention, oligomeric compounds targeting the hairpin structure of mir-30a pri-miRNA were designed and tested for their effects on miRNA signaling in 293T cells (American Type Culture Collection (Manassas, Va.)).
A synthetic DNA fragment comprised of four tandem repeats of the target site for mir-30a was cloned into the vector pGL3-C (purchased from Promega Corp., Madison Wis.) at the unique XbaI site (pGL3C-M30-4X). This places the target site in the 3′UTR of the luciferase reporter vector. An oligomeric compound mimicking the mir-30a pri-miRNA ([…] […], herein incorporated as SEQ ID NO: 1749) was in vitro transcribed using T7 RNA polymerase and a DNA template produced by PCR (the T7 promoter is shown in bold).
On the day prior to the experiment 24-well plates were seeded with 293T cells at 50% confluency. The following morning cells were treated with oligomeric compounds targeted to the mir-30a pri-miRNA mimic. All of the compounds are 20 nucleobases in length having either a phosphorothioate backbone throughout (PS) or a phosphodiester backbone throughout (PO). […] All cytidine residues are 5-methylcytidines. The remaining compounds in the table have 2′-methoxyethoxy (MOE) nucleotides throughout with either a phosphorothioate (PS) or phosphodiester (PO) internucleoside linkages.
Cells were washed once with PBS then oligomeric compounds were added to triplicate wells at 150 nM in OPTI-MEM™ media and 4.5 μl/ml LIPOFECTIN™ reagent (Invitrogen Corporation, Carlsbad, Calif.). After 3 hours, the media was removed, and the cells were treated with the mir-30a pri-miRNA mimic at 200 nM in OPTI-MEM™ with 6 μl/ml LIPOFECTIN™ reagent. After 3 hours the media was removed from the cells. The reporter plasmid, pGL3C-M30-4X, was then transfected using SuperFect reagent. 20 μg of pGL3C-M30-4X and 2 μg of pRL-CMV, a plasmid expressing Renilla luciferase, were suspended in 600 μL of serum-free DMEM to which 120 μl of Superfect was added. After a 5 minute incubation, 6 mls of DMEM+10% FCS was added. 125 μL of the plasmid/SuperFect suspension was added to each well. After a 2 hour incubation cells were washed and fresh growth media added. Cells were incubated overnight.
The following morning the media was removed and the cells were lysed in 120 μL passive lysis buffer (PLB; Promega). 40 μL of the lysate was then assayed for Photinus (PL) and Renilla (RL) luciferases using a Dual Luciferase Assay kit (Promega) according to the manufacturer's protocol. The results below are given as percent pGL3C-M30-4× expression (PL) normalized to pRL-CMV expression (RL). The 20-nucleobase oligonucleotide random-mer ISIS Number 29848 was used as a negative control.

Series [2] deals with ob/ob mice. Nature of the series: ob/ob mice: plasma parameters, food consumption, marker gene mRNA. The format is in vivo, mouse. The following applies: six week old ob/ob mice, 25 mg/kg twice weekly for four weeks. From the text:
Leptin is a hormone produced by fat cells that regulates appetite. Deficiencies in this hormone in both humans and non-human animals leads to obesity. ob/ob mice have a mutation in the leptin gene which results in obesity and hyperglycemia. As such, these mice are a useful model for the investigation of obesity and diabetes and treatments designed to treat these conditions. ob/ob mice have higher circulating levels of insulin and are less hyperglycemic than db/db mice, which harbor a mutation in the leptin receptor. In accordance with the present invention, the oligomeric compounds of the invention are tested in the ob/ob model of obesity and diabetes.
Seven-week old male C57B1/6J-Lep ob/ob mice (Jackson Laboratory, Bar Harbor, Me.) are fed a diet with a fat content of 10-15% and are subcutaneously injected with the oligomeric compounds of the invention or a control compound at a dose of 25 mg/kg two times per week for 4 weeks. Saline-injected animals, leptin wildtype littermates (i.e. lean littermates) and ob/ob mice fed a standard rodent diet serve as controls. After the treatment period, mice are sacrificed and target levels are evaluated in liver, brown adipose tissue (BAT) and white adipose tissue (WAT). RNA isolation and target RNA expression level quantitation are performed as described by other examples herein.
To assess the physiological effects resulting from modulation of target, the ob/ob mice are evaluated at the end of the treatment period for serum lipids, serum free fatty acids, serum cholesterol (CHOL), liver triglycerides, fat tissue triglycerides and liver enzyme levels. Hepatic steatosis, or clearing of lipids from the liver, is assessed by measuring the liver triglyceride content. Hepatic steatosis is assessed by routine histological analysis of frozen liver tissue sections stained with oil red O stain, which is commonly used to visualize lipid deposits, and counterstained with hematoxylin and eosin, to visualize nuclei and cytoplasm, respectively.
The effects of target modulation on glucose and insulin metabolism are evaluated in the ob/ob mice treated with the oligomeric compounds of the invention. Plasma glucose is measured at the start of the treatment and after 2 weeks and 4 weeks of treatment. Plasma insulin is similarly measured at the beginning of the treatment, and following at 2 weeks and at 4 weeks of treatment. Glucose and insulin tolerance tests are also administered in fed and fasted mice. Mice receive intraperitoneal injections of either glucose or insulin, and the blood glucose and insulin levels are measured before the insulin or glucose challenge and at 15, 20 or 30 minute intervals for up to 3 hours.
The ob/ob mice that receive treatment are evaluated at the end of the treatment period for the effects of target modulation on the expression of genes that participate in lipid metabolism, cholesterol biosynthesis, fatty acid oxidation, fatty acid storage, gluconeogenesis and glucose metabolism. These genes include, but are not limited to, HMG-CoA reductase, acetyl-CoA carboxylase 1 and acetyl-CoA carboxylase 2, camitine palmitoyltransferase I and glycogen phosphorylase, glucose-6-phosphatase and phosphoenolpyruvate carboxykinase 1, lipoprotein lipase and hormone sensitive lipase. mRNA levels in liver and white and brown adipose tissue are quantitated by real-time PCR as described in other examples herein, employing primer/probe sets that are generated using published sequences of each gene of interest.
As described herein, leptin-deficient (ob/ob) mice, leptin receptor-deficient (db/db) mice and diet-induced obesity (DIO) mice are used to model obesity and diabetes. In accordance with the present invention, oligomeric compounds targeting mir-143, mir-131 (also known as mir-9) and mir-203 were tested in the ob/ob and db/db models. […]

Series [3] deals with PEPCK-c. Nature of the series: PEPCK-c mRNA expression in HepG2 cells. The following applies: 100 nM; for reduction of PEPCK-c mRNA expression: HepG2, 1 nM insulin. The format is cell-based, human.
Series [4] concerns HepG2 cells. Nature of the series: Insulin signaling assay in HepG2 cells, marker genes taken together. The format is cell-based, human. The conditions noted are these: for mRNA levels of the IGFBP-1 and follistatin genes / expression of the IGFBP-1, PEPCK-c and follistatin marker genes: HepG2, 1 nM insulin; for expression of the IGFBP-1, PEPCK-c and follistatin marker genes: 100 nM.

Series [5] has as its system HuVECs. Nature of the series: Endothelial tube formation assay in HuVECs. The conditions noted are these: 75 nM.
Series [6] concerns adipocytes. Briefly: Triglyceride accumulation assay in adipocytes. The format is cell-based, human. The following applies: preadipocytes, 250 nM, day nine.
Series [7] relates to leptin. Briefly: Leptin secretion by adipocytes (ELISA). The following applies: preadipocytes, 250 nM, day nine. The format is cell-based, human. The protocol: Leptin secretion into the medium in which adipocytes are cultured is measured by protein ELISA. On day nine post-transfection, 96-well plates are coated with a monoclonal antibody to human leptin (R&D Systems, Minneapolis, Minn.) and left at 4° C. overnight. The plates are blocked with bovine serum albumin (BSA), and a dilution of the treated adipoctye medium is incubated in the plate at room temperature for approximately 2 hours. After washing to remove unbound components, a second monoclonal antibody to human leptin (conjugated with biotin) is added. The plate is then incubated with strepavidin-conjugated horse radish peroxidase (HRP) and enzyme levels are determined by incubation with 3, 3′,5,5′-tetramethlybenzidine, which turns blue when cleaved by HRP. The OD450 is read for each well, where the dye absorbance is proportional to the leptin concentration in the cell lysate.
Leptin is also a marker for differentiated adipocytes. In the adipocyte assay, leptin secretion into the media above the differentiated adipocytes was measured by protein ELISA. Cell growth, transfection and differentiation procedures were carried out as described for the Triglyceride accumulation assay (see below). On day nine post-transfection, 96-well plates were coated with a monoclonal antibody to human leptin (R&D Systems, Minneapolis, Minn.) and left at 4° C. overnight. The plates were blocked with bovine serum albumin (BSA), and a dilution of the media was incubated in the plate at RT for 2 hours. After washing to remove unbound components, a second monoclonal antibody to human leptin (conjugated with biotin) was added. The plate was then incubated with strepavidin-conjugated horseradish peroxidase (HRP) and enzyme levels are determined by incubation with 3, 3′, 5,5′-Tetramethlybenzidine, which turns blue when cleaved by HRP. The OD450 was read for each well, where the dye absorbance is proportional to the leptin concentration in the cell lysate. Results are expressed as a percent±standard deviation relative to transfectant-only controls.

Series [8] has as its system preadipocytes / differentiating adipocytes. Nature of the series: Adipocyte differentiation assay, markers taken together. The format is cell-based, human.

In the oligonucleotide strings, read from the 5' end, every base follows the letter of its sugar. An asterisk marks phosphorothioate; unmarked linkages are phosphodiester. Other units and linkages are bracketed, terminal groups are in braces. A string of capitals states the bases alone. e = 2'-O-(2-methoxyethyl) (MOE); [5mC] = 5-methylcytosine; d = 2'-deoxy (DNA)

For the substance “328077 (antisense CCCATCTGTGGCTTCACAGC; all 2'-MOE, all phosphorothioate, methylation of C not given here) [compound 328077]”, the “percent control luciferase expression” value in series [1] was determined as 70 percent control.
For the substance “ISIS 328087: 2′-MOE throughout; pseudo half-knot compound targeting the mir-30a pri-miRNA (antisense AAGCCCATCTGTGGCTTCAC; all 2'-MOE, all phosphorothioate, methylation of C not given here; pseudo half-knot design targeting pri-miRNA hairpin)”, the “reversing the mir-30a miRNA-mediated silencing of luciferase reporter” value in series [1] (150 nM, then mir-30a pri-miRNA mimic) is “restoring luciferase reporter expression to near control levels”.
Consider “328081 (antisense eT*eG*eA*eA*eA*dG*d[5mC]*d[5mC]*d[5mC]*dA*dT*d[5mC]*dT*dG*dT*eG*eG*e[5mC]*eT*eT) [compound 328081]”, for which, in series [1], the “percent control luciferase expression” value amounted to 80 percent control.
As for “GAAACCCAGCAGACAATGTAGCT (anti-miR; chemistry not fully specified) [ISIS 345384, PS 2′-MOE 5-10-8 gapmer; targets mir-221]”, in series [2], the “plasma glucose levels in the fed state” value was “reductions in plasma glucose levels in the fed state at weeks two and four”.
On to “ISIS 328761: oligomeric compound targeting hypothetical mir-138 (antisense eG*e[5mC]*eA*eG*eG*d[5mC]*dT*dA*dA*dA*dA*dG*dA*dA*dA*eT*eA*eA*eG*e[5mC])”, for which, in series [3], the “reduction of PEPCK-c mRNA expression” value stood at 45%. Also, the “decrease in PEPCK-c mRNA” value in series [3] (HepG2, basal (no insulin)) amounted to 52%. Also, the “mRNA levels of the IGFBP-1 and follistatin genes” value in series [4] was “also reduced”.
With “328085 (antisense CATCTGTGGCTTCACAGCTT; all 2'-MOE, all phosphorothioate, methylation of C not given here; designed as pseudo half-knot compound) [compound 328085]”, the “percent control luciferase expression” value in series [1] came out at 72 percent control.
The same measure, in the same setting: for “328088 (antisense eA*eA*eG*e[5mC]*e[5mC]*d[5mC]*dA*dT*d[5mC]*dT*dG*dT*dG*dG*d[5mC]*eT*eT*e[5mC]*eA*e[5mC]) [compound 328088]” the value was 107 percent control.
The same measure, in the same setting: for “328087 (antisense AAGCCCATCTGTGGCTTCAC; all 2'-MOE, all phosphorothioate, methylation of C not given here; pseudo half-knot design targeting pri-miRNA hairpin) [compound 328087]” the value was 83 percent control.
“ISIS 328765: oligomeric compound targeting mir-215 (antisense eG*eA*e[5mC]*eA*eA*dA*d[5mC]*dT*d[5mC]*dA*dG*d[5mC]*dT*dA*dT*eA*eT*eT*eG*eT)”: the “reduction of PEPCK-c mRNA expression” value in series [3] is reported as 27%. The “mRNA levels of the IGFBP-1 and follistatin genes” value in series [4] is reported as “also reduced”.
With “CAGCCGCTGTCACACGCACAG (anti-miR; chemistry not fully specified) [ISIS 327959, uniform 2′-MOE PS; targets mir-210]”, the tube formation entry in series [5] was “suppressed tube formation”. In addition, the “IGFBP-1 and PEPCK-c marker genes” value in series [4] (HepG2, basal (no insulin)) is “increases in the IGFBP-1 and PEPCK-c marker genes”.
With TCACAAGTTAGGGTCTCAGGGA [ISIS 327939], in series [6], the triglyceride accumulation result is “decrease in triglyeride accumulation”. Further, the Leptin (secretion) entry in series [7] was “significant increase in leptin secretion”. Further, the “expression of the four adipocyte differentiation hallmark genes” value in series [8] (preadipocytes, 250 nM, day nine) was “decrease in the expression of all four adipocyte differentiation hallmark genes”. Besides, in series [4], the “expression of the IGFBP-1, PEPCK-c and follistatin marker genes” value is “increased expression of the IGFBP-1, PEPCK-c and follistatin marker genes”.
On to “TAGCTGGTTGAAGGGGACCAA (anti-miR; chemistry not fully specified) [ISIS 327925, uniform 2′-MOE PS; targets mir-133b]”, for which the tube formation entry in series [5] is on record as “suppressed tube formation”. For the same substance, the “expression of the IGFBP-1, PEPCK-c and follistatin marker genes” value in series [4] was “increased expression of the IGFBP-1, PEPCK-c and follistatin marker genes”.
Regarding “ACAGGCCGGGACAAGTGCAATA (anti-miR; chemistry not fully specified) [ISIS 327897, uniform 2′-MOE PS; targets mir-92-1]”, the “5 markers of adipocyte differentiation” value in series [8] (differentiating adipocytes, % of UTC (Table 75)) is recorded as “significant reduction in expression of 4 of the 5 markers of differentiation”. In addition, the “expression of the IGFBP-1 and follistatin marker genes” value in series [4] (HepG2, basal (no insulin)) is “increased expression of the IGFBP-1 and follistatin marker genes”.
